“And” between values parts separate entries of the source, which are not always exact repeats. Identical values can stand only once.
Experiment: Patient incidence of adverse events (CTCAE version 4.0)
Format: in vivo
Excerpt: Each patient was monitored for 21 days for the occurrence of dose-limiting toxicities (DLTs), defined as febrile neutropenia, neutropenic infection, grade 4 neutropenia lasting >7 days, grade ≥ 3 thrombocytopenia lasting >7 days (solid tumors only), grade 3 thrombocytopenia with grade ≥ 2 bleeding (solid tumors only), grade 3 or 4 thrombocytopenia with grade > 1 bleeding (multiple myeloma only), grade 4 thrombocytopenia (solid tumors only), or grade 4 thrombocytopenia lasting >14 days (multiple myeloma only), or as grade ≥ 3 nausea, vomiting, or diarrhea after support; grade 3 fatigue lasting >7 days; any other grade ≥ 3 adverse event (AE); grade ≥ 3 kidney injury (multiple myeloma only), or treatment-related AEs not returning to grade ≤ 1 (solid tumors only) per Common Terminology Criteria for Adverse Events (CTCAE), version 4.0. The MTD was defined as the maximum dose, at which the probability of a DLT was ≤25% in Part 1A and ≤ 33% in Parts 1B and 1C. Treatment continued until disease progression, intolerable toxicity, or withdrawal of consent.
AEs were recorded for all enrolled patients.

[1] = 240-mg dose expansion, Other Solid (n = 16)
[2] = 240-mg dose expansion, Total (n = 68)
[3] = 240-mg dose expansion, WDLPS (n = 10)
[4] = 240-mg dose expansion, all patients

CC(C)[C@@H](CS(=O)(=O)C(C)C)N1C(=O)[C@@](C)(CC(=O)O)C[C@H](c2cccc(Cl)c2)[C@H]1c1ccc(Cl)cc1 [AMG 232]
Serious, treatment-related AE: Hyperlipasemia (grade 3) [1]: 0 n (%)
Serious, treatment-related AE: Nausea (grade 3) [1]: 0 n (%)
Serious, treatment-related AE: Pulmonary embolism (grade 3) [1]: 0 n (%)
Serious, treatment-related AE: Vomiting (grade 3) [1]: 0 n (%)
Treatment-related AE: Anemia [1]: 3 (19) n (%)
Treatment-related AE: Asthenia [1]: 2 (13) n (%)
Treatment-related AE: Decrease appetite [1]: 4 (25) n (%)
Treatment-related AE: Diarrhea [1]: 8 (50) n (%)
Treatment-related AE: Dysgeusia [1]: 2 (13) n (%)
Treatment-related AE: Fatigue [1]: 6 (38) n (%)
Treatment-related AE: Nausea [1]: 11 (69) n (%)
Treatment-related AE: Neutropenia [1]: 1 (6) n (%)
Treatment-related AE: Thrombocytopenia [1]: 2 (13) n (%)
Treatment-related AE: Vomiting [1]: 8 (50) n (%)
Patients with any treatment-emergent AE [2]: 67 (99%) n (%) and 67 (99) n (%)
Patients with any treatment-emergent serious AE [2]: 29 (43%) n (%) and 29 (43) n (%)
Patients with any treatment-related AE, Grade 3 [2]: 25 (37) n (%)
Patients with any treatment-related AE, Grade 4 [2]: 8 (12) n (%)
Patients with any treatment-related AE, Grade 5 [2]: 0 n (%)
Serious, treatment-related AE: Dehydration (grade 3) [2]: 1 (2) n (%)
Serious, treatment-related AE: Diarrhea (grade 3) [2]: 1 (2) n (%)
Serious, treatment-related AE: Hyperamylasemia (grade 3) [2]: 1 (2) n (%)
Serious, treatment-related AE: Hyperlipasemia (grade 3) [2]: 1 (2) n (%)
Serious, treatment-related AE: Nausea (grade 3) [2]: 1 (2) n (%)
Serious, treatment-related AE: Pulmonary embolism (grade 3) [2]: 1 (2) n (%)
Serious, treatment-related AE: Vomiting (grade 3) [2]: 3 (4) n (%)
Treatment-related AE: Anemia [2]: 10 (15) n (%)
Treatment-related AE: Asthenia [2]: 9 (13) n (%)
Treatment-related AE: Decrease appetite [2]: 28 (41) n (%)
Treatment-related AE: Diarrhea [2]: 46 (68) n (%)
Treatment-related AE: Dysgeusia [2]: 9 (13) n (%)
Treatment-related AE: Fatigue [2]: 32 (47) n (%)
Treatment-related AE: Nausea [2]: 46 (68) n (%)
Treatment-related AE: Neutropenia [2]: 12 (18) n (%)
Treatment-related AE: Thrombocytopenia [2]: 14 (21) n (%)
Treatment-related AE: Vomiting [2]: 32 (47) n (%)
Patients with any serious, treatment-related AE [3]: 2 (20) n (%)
Patients with any treatment-emergent AE [3]: 10 (100) n (%)
Patients with any treatment-emergent serious AE [3]: 5 (50) n (%)
Patients with any treatment-related AE [3]: 10 (100) n (%)
Patients with any treatment-related AE, Grade 3 [3]: 6 (60) n (%)
Patients with any treatment-related AE, Grade 4 [3]: 3 (30) n (%)
Patients with any treatment-related AE, Grade 5 [3]: 0 n (%)
Serious, treatment-related AE: Dehydration (grade 3) [3]: 1 (10) n (%)
Serious, treatment-related AE: Diarrhea (grade 3) [3]: 0 n (%)
Serious, treatment-related AE: Hyperamylasemia (grade 3) [3]: 0 n (%)
Serious, treatment-related AE: Hyperlipasemia (grade 3) [3]: 0 n (%)
Serious, treatment-related AE: Nausea (grade 3) [3]: 0 n (%)
Serious, treatment-related AE: Pulmonary embolism (grade 3) [3]: 1 (10) n (%)
Serious, treatment-related AE: Vomiting (grade 3) [3]: 0 n (%)
Treatment-related AE: Anemia [3]: 5 (50) n (%)
Treatment-related AE: Asthenia [3]: 0 n (%)
Treatment-related AE: Decrease appetite [3]: 7 (70) n (%)
Treatment-related AE: Diarrhea [3]: 9 (90) n (%)
Treatment-related AE: Dysgeusia [3]: 1 (10) n (%)
Treatment-related AE: Fatigue [3]: 8 (80) n (%)
Treatment-related AE: Nausea [3]: 10 (100) n (%)
Treatment-related AE: Thrombocytopenia [3]: 6 (60) n (%)
Treatment-related AE: Vomiting [3]: 7 (70) n (%)
Treatment-emergent AE: anemia [4]: 25%
Treatment-emergent AE: decreased appetite [4]: 41%
Treatment-emergent AE: diarrhea [4]: 72%
Treatment-emergent AE: fatigue [4]: 53%
Treatment-emergent AE: nausea [4]: 72%
Treatment-emergent AE: thrombocytopenia [4]: 24%
Treatment-emergent AE: vomiting [4]: 59%
Treatment-related AE: Diarrhea [4]: 68%
Treatment-related AE: Fatigue [4]: 47%
Treatment-related AE: Nausea [4]: 68%
Treatment-related AE: Thrombocytopenia [4]: 21%
Treatment-related AE: Vomiting [4]: 47%
Treatment-related AE: decreased appetite [4]: 41%
Patients with fatal AEs while on study (240-mg dose expansion, two with disease progression and one with physical deterioration): Three
AE resulting in treatment discontinuation: febrile neutropenia (dose escalation): 1 n
AE resulting in treatment discontinuation: neutropenia (dose escalation): 2 n
AE resulting in treatment discontinuation: thrombocytopenia (dose escalation): 5 n
Patients with AEs resulting in treatment discontinuation (dose escalation): eight
Patients with fatal AEs of disease progression while on study (dose escalation): Four
Patients with any treatment-emergent AE (dose escalation, 15 mg (n = 3)): 1 (33) n (%)
Patients with any treatment-emergent serious AE (dose escalation, 15 mg (n = 3)): 1 (33) n (%)
Patients with any treatment-related AE (dose escalation, 15 mg (n = 3)): 1 (33) n (%)
Patients with any treatment-related AE, Grade 3 (dose escalation, 15 mg (n = 3)): 0 n (%)
Patients with any treatment-related AE, Grade 4 (dose escalation, 15 mg (n = 3)): 0 n (%)
Patients with any treatment-related AE, Grade 5 (dose escalation, 15 mg (n = 3)): 0 n (%)
Patients with any treatment-related serious AE (dose escalation, 15 mg (n = 3)): 0 n (%)
Treatment-related AE: Abdominal pain (dose escalation, 15 mg (n = 3)): 0 n (%)
Treatment-related AE: Anemia (dose escalation, 15 mg (n = 3)): 0 n (%)
Treatment-related AE: Asthenia (dose escalation, 15 mg (n = 3)): 0 n (%)
Treatment-related AE: Decrease appetite (dose escalation, 15 mg (n = 3)): 0 n (%)
Treatment-related AE: Diarrhea (dose escalation, 15 mg (n = 3)): 0 n (%)
Treatment-related AE: Dysgeusia (dose escalation, 15 mg (n = 3)): 0 n (%)
Treatment-related AE: Fatigue (dose escalation, 15 mg (n = 3)): 1 (33) n (%)
Treatment-related AE: Myalgia (dose escalation, 15 mg (n = 3)): 0 n (%)
Treatment-related AE: Nausea (dose escalation, 15 mg (n = 3)): 0 n (%)
Treatment-related AE: Neutropenia (dose escalation, 15 mg (n = 3)): 0 n (%)
Treatment-related AE: Thrombocytopenia (dose escalation, 15 mg (n = 3)): 0 n (%)
Treatment-related AE: Upper abdominal pain (dose escalation, 15 mg (n = 3)): 0 n (%)
Treatment-related AE: Vomiting (dose escalation, 15 mg (n = 3)): 0 n (%)
Treatment-related serious AE: Abdominal pain (grade 2) (dose escalation, 15 mg (n = 3)): 0 n (%)
Treatment-related serious AE: Dehydration (grade 2) (dose escalation, 15 mg (n = 3)): 0 n (%)
Treatment-related serious AE: Diarrhea (dose escalation, 15 mg (n = 3)): 0 n (%)
Treatment-related serious AE: Diarrhea, Grade 2 (dose escalation, 15 mg (n = 3)): 0 n (%)
Treatment-related serious AE: Diarrhea, Grade 3 (dose escalation, 15 mg (n = 3)): 0 n (%)
Treatment-related serious AE: Febrile neutropenia (grade 3) (dose escalation, 15 mg (n = 3)): 0 n (%)
Treatment-related serious AE: Hematemesis (grade 3) (dose escalation, 15 mg (n = 3)): 0 n (%)
Treatment-related serious AE: Nausea (grade 3) (dose escalation, 15 mg (n = 3)): 0 n (%)
Treatment-related serious AE: Neutropenia (grade 4) (dose escalation, 15 mg (n = 3)): 0 n (%)
Treatment-related serious AE: Non-cardiac chest pain (grade 3) (dose escalation, 15 mg (n = 3)): 0 n (%)
Treatment-related serious AE: Thrombocytopenia (grade 4) (dose escalation, 15 mg (n = 3)): 0 n (%)
Treatment-related serious AE: Vomiting (dose escalation, 15 mg (n = 3)): 0 n (%)
Treatment-related serious AE: Vomiting, Grade 2 (dose escalation, 15 mg (n = 3)): 0 n (%)
Treatment-related serious AE: Vomiting, Grade 3 (dose escalation, 15 mg (n = 3)): 0 n (%)
Patients with any treatment-emergent AE (dose escalation, 30 mg (n = 3)): 3 (100) n (%)
Patients with any treatment-emergent serious AE (dose escalation, 30 mg (n = 3)): 0 n (%)
Patients with any treatment-related AE (dose escalation, 30 mg (n = 3)): 1 (33) n (%)
Patients with any treatment-related AE, Grade 3 (dose escalation, 30 mg (n = 3)): 0 n (%)
Patients with any treatment-related AE, Grade 4 (dose escalation, 30 mg (n = 3)): 0 n (%)
Patients with any treatment-related AE, Grade 5 (dose escalation, 30 mg (n = 3)): 0 n (%)
Patients with any treatment-related serious AE (dose escalation, 30 mg (n = 3)): 0 n (%)
Treatment-related AE: Abdominal pain (dose escalation, 30 mg (n = 3)): 0 n (%)
Treatment-related AE: Anemia (dose escalation, 30 mg (n = 3)): 0 n (%)
Treatment-related AE: Asthenia (dose escalation, 30 mg (n = 3)): 0 n (%)
Treatment-related AE: Decrease appetite (dose escalation, 30 mg (n = 3)): 0 n (%)
Treatment-related AE: Diarrhea (dose escalation, 30 mg (n = 3)): 1 (33) n (%)
Treatment-related AE: Dysgeusia (dose escalation, 30 mg (n = 3)): 0 n (%)
Treatment-related AE: Fatigue (dose escalation, 30 mg (n = 3)): 1 (33) n (%)
Treatment-related AE: Myalgia (dose escalation, 30 mg (n = 3)): 0 n (%)
Treatment-related AE: Nausea (dose escalation, 30 mg (n = 3)): 1 (33) n (%)
Treatment-related AE: Neutropenia (dose escalation, 30 mg (n = 3)): 0 n (%)
Treatment-related AE: Thrombocytopenia (dose escalation, 30 mg (n = 3)): 0 n (%)
Treatment-related AE: Upper abdominal pain (dose escalation, 30 mg (n = 3)): 0 n (%)
Treatment-related AE: Vomiting (dose escalation, 30 mg (n = 3)): 1 (33) n (%)
Treatment-related serious AE: Abdominal pain (grade 2) (dose escalation, 30 mg (n = 3)): 0 n (%)

Reference: paper PMC7211202 (Investigational New Drugs, 2019)
